Measurements from patent US11339124B2, “3-(benzylamino)-4-(cyclohexylamino)-n-(2-(piperazin-1-yl)ethyl)benzenesulfonamide derivatives and related ferrostatin-1 analogues as cell death inhibitors for treating e.g. stroke” (VIB VZW, priority 2018, dated 2022).
Entries after “also recorded” stand apart in the source; their conditions may differ.

System: experimental autoimmune encephalomyelitis model
Experiment: Experimental autoimmune encephalomyelitis (EAE) model, therapeutic intervention
Type: in vivo
Settings: C57BL/6N male mice, daily ip from clinical score 2, scale 0 to 6 (FIG. 6); Hydrochloride
Protocol: 9-10-week-old C57BL/6N male mice were immunized subcutaneously with an emulsion of (MOG) 35-55 peptide (10 mg/kg) and CFA supplemented with Mycobacterium tuberculosis H37RA (50 mg/kg). The mice received an intraperitoneal injection of pertussis toxin (5 ug/kg) at the time of immunization and 48 h later. In a therapeutic procedure, mice that reached the clinical sore of 2 were injected intraperitoneally every day with equimolar amounts of Fer-1, compound 39, Liproxtatin-1 or vehicle (˜1-mg/kg) and were scored daily. Clinical signs of disease were scored on a scale of 0 to 6, as follows: 0, normal; 1, weakness of tail; 2, complete loss of tail tonicity; 3, partial hind limb paralysis; 4, complete hind limb paralysis; 5, forelimb paralysis or moribund; and 6, death (McGuire C et al (2013) J. Immunol. 190(6): 2896).
Experimental autoimmune encephalomyelitis (EAE) is an experimental mouse for multiple sclerosis.

## Cl.O=S(=O)(NCCN1CCNCC1)c1ccc(NC2CCCCC2)c(NCc2ccccc2)c1 [Compound 39, 3-(benzylamino)-4-(cyclohexylamino)-N-(2-(piperazin-1-yl)ethyl)benzenesulfonamide Hydrochloride]
  Clinical disease scores during EAE pathology: ameliorates clinical signs; also recorded: improved the clinical disease scores
